Laboratory results taken from paper PMC10765884, “MC180295 is a highly potent and selective CDK9 inhibitor with preclinical in vitro and in vivo efficacy in cancer” (Clinical Epigenetics, 2024).
“Also recorded” adds a separate entry of the source. Where two headings read alike, the source gives them in different places.

How the values were obtained:
[1] = Liver microsome stability assay; assay type: in vitro ADME, human; conditions: both sexes, pooled liver microsomes, pH 7.4; for half-life at 1 µM: Human (mixed gender) liver microsomes; for remaining at 1 h, 1 µM: Human liver microsomes, without NADPH, 60 min, read-out: Stability minus NADPH % Remaining @ 60 min
Description: Assays were conducted in 96-deep well polypropylene plates. In duplicate, test compounds (1 µM) were incubated in 0.5 mL of 100 mM potassium phosphate buffer (pH 7.4), with 0.5 mg/ml pooled liver microsomes (Life Technologies: CD-1 male mice # MSMCPL; SD male rat # RTMCPL; mixed gender human # HMMCPL. […] At five time points, 75 µL of reaction mixtures were transferred on ice to a 96-shallow well stop plate containing 225 µL acetonitrile with 0.1 µM propafenone. […] Standard curves for test compounds were generated using 5 concentrations (in duplicate) that were processed as above but with no incubation time. Stop plates were centrifuged at 2000xg for 10 min in a Sorvall ST 16 centrifuge, and 170 µL of the supernatants transferred to a Waters® Aquity UPLC (Ultra Performance Liquid Chromatography) 700 µL 96-well sample plate with cap mat. A Waters® Aquity UPLC BEH C18 1.7 µM, 2.1 × 50 mm column, at 40 °C, was used to fractionate 5 µL samples, using a 3 min linear 5 to 95% acetonitrile gradient in 0.1% formic acid with a 0.75 mL/min flow rate. In tandem with UPLC, compound concentrations were analyzed using a Waters® TQ MS mass spectrometer in electrospray-positive mode (source temperature 150 °C; desolvation temperature 450 °C; desolvation flow rate of 900 L/hr). Cone voltages, collision energies, and quantitation were optimized and determined using Waters® QuanOptimize software, with propafenone as an internal standard. MC180379:CV 34; CE 34; mrm 359.15 > 114.91; MC180390 CV 34; CE 28; mrm 359.15 > 114.92. GraphPad® Prism v 5.04 was used for nonlinear fitting of time course data to generate t1/2 and CLint (intrinsic clearance) values.

[2] = Liver microsome stability assay; assay type: in vitro ADME, mouse; conditions: pH 7.4; for remaining at 1 h, 1 µM: male, CD-1, pooled liver microsomes, Mouse liver microsomes, without NADPH, 60 min, read-out: Stability minus NADPH % Remaining @ 60 min; for half-life at 1 µM: pooled liver microsomes, Mouse (CD-1, male) liver microsomes
Description: Assays were conducted in 96-deep well polypropylene plates. In duplicate, test compounds (1 µM) were incubated in 0.5 mL of 100 mM potassium phosphate buffer (pH 7.4), with 0.5 mg/ml pooled liver microsomes (Life Technologies: CD-1 male mice # MSMCPL; SD male rat # RTMCPL; mixed gender human # HMMCPL. BD Genetest male beagle dog; # 452,601; male marmoset # 452,340), 2 mM tetra sodium NADPH, and 3 mM MgCl2, for 60 min in a Labnet® Vortemp incubator at 37 °C, with gentle shaking. At five time points, 75 µL of reaction mixtures were transferred on ice to a 96-shallow well stop plate containing 225 µL acetonitrile with 0.1 µM propafenone. […] Standard curves for test compounds were generated using 5 concentrations (in duplicate) that were processed as above but with no incubation time. Stop plates were centrifuged at 2000xg for 10 min in a Sorvall ST 16 centrifuge, and 170 µL of the supernatants transferred to a Waters® Aquity UPLC (Ultra Performance Liquid Chromatography) 700 µL 96-well sample plate with cap mat. A Waters® Aquity UPLC BEH C18 1.7 µM, 2.1 × 50 mm column, at 40 °C, was used to fractionate 5 µL samples, using a 3 min linear 5 to 95% acetonitrile gradient in 0.1% formic acid with a 0.75 mL/min flow rate. In tandem with UPLC, compound concentrations were analyzed using a Waters® TQ MS mass spectrometer in electrospray-positive mode (source temperature 150 °C; desolvation temperature 450 °C; desolvation flow rate of 900 L/hr). Cone voltages, collision energies, and quantitation were optimized and determined using Waters® QuanOptimize software, with propafenone as an internal standard. MC180379:CV 34; CE 34; mrm 359.15 > 114.91; MC180390 CV 34; CE 28; mrm 359.15 > 114.92. GraphPad® Prism v 5.04 was used for nonlinear fitting of time course data to generate t1/2 and CLint (intrinsic clearance) values.

[3] = Drug toxicity: body weights and complete blood counts in tumor-bearing mice; assay type: in vivo
Description: For the s.c. SW48 model, 2 × 10^6 cells were injected into the flanks of randomly assigned, gender-matched 8–10-week-old NSG mice. 20 mg/kg MC180379, MC180380, or MC180295 was injected (i.p.), every other day, when the tumors were palpable, 11 days after engraftment, until endpoints were met. Mice were sacrificed before tumor volumes exceeded 400 mm^2 (endpoint for this model). For the s.c. HT29 model, 2 × 10^6 cells were injected into the flanks of randomly assigned, gender-matched, 8–10-week-old NSG mice. 20 mg/kg MC180379 or MC180380 was injected (i.p.), every other day, when the tumors were palpable, 12 days after engraftment, until endpoints were met. Mice were sacrificed before tumors volumes exceeded 400 mm^2 (used as the endpoint for this model). For the CT26.CL25 model, 5 × 10^5 cells were injected into the flanks of randomly assigned female 8–10-week-old B6 mice. 20 mg/kg MC180295 was injected (i.p.), every other day, when the tumors were palpable, 8 days after engraftment, until endpoints were met. 0.5 mg/kg DAC was injected (i.p.) daily until an endpoint was met. Mice were sacrificed when they developed serious tumoral ulcerations. CD8 + T cells were depleted using an anti-CD8 antibody (InVivoMAb anti-mouse CD8 (Lyt 2.1), BE0118) on days 4, 5, and 11 after inoculation. MC180295, MC180379, and MC180380 were dissolved in NMP (Fisher Scientific), Captisol® (20% w/v) (CyDex), PEG-400 (Millipore Sigma), and normal saline (PBS) (Corning), at a ratio of 1:4:4:11. NMP was added first, followed by Captisol and PEG-400. PBS was added last. DAC was dissolved in water. In a subset of the experiments, after mice were sacrificed, peripheral blood was collected, and complete blood counts were obtained using Abaxis VetScan HM5.

[4] = Liver microsome stability assay; assay type: in vitro ADME; conditions: pooled liver microsomes, pH 7.4, Cynomologous Monkey liver microsomes; for half-life at 1 µM: cynomolgus monkey; for remaining at 1 h, 1 µM: without NADPH, 60 min, read-out: Stability minus NADPH % Remaining @ 60 min
MV4-11-luc cells = experiment: MV4-11-luc AML model in NSG mice; conditions: MV4-11-luc in NSG mice, 20 mg/kg i.p. q.o.d.; for survival: 20 mg/kg
Description: E NSG mice were inoculated (i.p.) with 5 × 10^5 MV4-11-luc cells. Four days later, when substantial tumor burden was evident by bioluminescence imaging, MC180379, MC180380, or vehicle were administered (i.p.) q.o.d at 20 mg/kg. Luciferase expression was quantified and calculated. F Mouse survival in days. […] Significances were calculated using log-rank (Mantel-Cox) or Student’s t tests.
0.5 mg/kg DAC was administered (i.p.) daily. […] B Mouse survival in days. 20 mg/kg MC180295 was administered (i.p.) q.o.d. 0.5 mg/kg DAC was administered (i.p.) daily. C NSG mice were inoculated (i.p.) with 5 × 10^5 MV4-11-luc cells. Four days later, when substantial tumor burden was evident by bioluminescence imaging, MC180295 (20 mg/kg) or vehicle were administered (i.p.) every other day. 0.5 mg/kg DAC was administered (i.p.) daily. Luciferase expression was quantified and calculated. […] 0.5 mg/kg DAC was administered (i.p.) daily. Mouse survival shown in days. Significances were calculated using log-rank (Mantel-Cox) or Student's t tests. Data are shown as means ± SEMs. ***p < 0.001
Both female and male NOD.Cg-Prkdcscid Il2rgtm1Wjl/SzJ (NSG) mice were used for the experiments. Age- and gender-matched mice were randomly assigned to each group. 8–10-week-old NSG mice were tail vein-injected with 5 × 10^5 MV4-11-luc cells. […] Natural death or accumulation of ascites fluid were used as endpoints.

[5] = HT29 model, 20 mg/kg i.p. q.o.d.
[6] = SW48 model, 20 mg/kg i.p. q.o.d.

| Structure (SMILES) | half-life at 1 µM [1] [min] | remaining at 1 h, 1 µM [1] [%] | remaining at 1 h, 1 µM [2] [%] | half-life at 1 µM [2] [min] | absolute lymphocyte and monocyte counts [3, 5] | platelet counts [3, 5] | platelet counts [3, 6] | tolerability; neutrophil, lymphocyte, monocyte counts [3, 6] | body weights ([3]; SW48 model, NSG mice, Fig. S4E) | bone marrow suppression ([3]; in vivo, from lymphocyte, monocyte and platelet counts) | half-life at 1 µM [4] [min] | remaining at 1 h, 1 µM [4] [%] | tumor burden, as measured by luciferase intensities (MV4-11-luc cells) | survival (MV4-11-luc cells) | body weights ([3]; CT26.CL25 immunocompetent mice, after CD8 depletion, Fig. S5B) | body weights ([3]; CT26.CL25 immunocompetent mouse model, Fig. S5A) | body weights ([3]; SW48 model, NSG mice, Fig. S4C) |
| --- | --- | --- | --- | --- | --- | --- | --- | --- | --- | --- | --- | --- | --- | --- | --- | --- | --- |
| Nc1nc(N[C@H]2C[C@@H]3CC[C@H]2C3)sc1C(=O)c1ccccc1[N+](=O)[O-] [MC180380] | 21.1 | 88 | 88 | 7.1 | higher absolute lymphocyte and monocyte counts than MC180379-treated mice | higher platelet counts than those treated with MC180379 | slightly higher platelet counts than MC180379 | well-tolerated | did not affect NSG mouse body weights | less bone marrow-suppressive (and thus less toxic) than MC180379 | 1.5 | 51 | lower | significantly extended survival; also recorded: better survival | – | – | – |
| Nc1nc(N[C@H]2C[C@@H]3CC[C@H]2C3)sc1C(=O)c1ccccc1[N+](=O)[O-] (relative stereo) [MC180295] | – | – | – | – | – | – | – | – | – | – | – | – | – | significantly extended survival | neither MC180295 nor MC180295 + DAC treatment affected NSG mouse body weights, after CD8 depletion | neither MC180295 nor MC180295 + DAC treatment affected NSG mouse body weights | did not affect NSG mouse body weights |
| Nc1nc(N[C@@H]2C[C@H]3CC[C@@H]2C3)sc1C(=O)c1ccccc1[N+](=O)[O-] [MC180379] | 12.2 | 86 | 86 | 3.2 | – | – | – | well-tolerated | – | – | 0.8 | 73 | – | – | – | – | – |
